Reference: PMC7587356, “High-Throughput Screening for Inhibitors of the SARS-CoV-2 Protease Using a FRET-Biosensor” (Molecules, 2020)
Counter-ions that a name gives are not always drawn. Like-named read-outs stand apart in the source and are kept apart here.

Key:
SARS-CoV-2 3CLpro [1] = biological target: T1, SARS-CoV-2 3CLpro (Severe acute respiratory syndrome coronavirus 2, UniProt P0DTD1); test: biochemical; type: biochemical
SARS-CoV-2 3CLpro [2] = biological target: T1, SARS-CoV-2 3CLpro; test: biochemical; type: biochemical; set-up: Replicate_1 / Replicate_2 / mean / mean (LOPAC_screen_w_protease): unit not given here; details: for inhibition at 5 µM: 4 h
[3] = EC50 with Triton X-100 / EC50 without Triton X-100, ratio greater than 2 suggests aggregation-based inhibitor
[4] = with 0.01% Triton X-100; mean ± SD of triplicate; 4 h, 30 °C; read-out: A) EC50 with Triton X-100
[5] = without Triton X-100; mean ± SD of triplicate; 4 h, 30 °C; read-out: B) EC50 without Triton X-100
[6] = sheet LOPAC_screen_w_protease, LOPAC1280 primary screen at 5 µM, with protease, mean of the two replicates
[7] = sheet LOPAC_screen_w_protease, LOPAC1280 primary screen at 5 µM, with protease, replicate 1
[8] = sheet LOPAC_screen_w_protease, LOPAC1280 primary screen at 5 µM, with protease, replicate 2
[9] = sheet LOPAC_screen_w_protease, primary screen of LOPAC1280 at 5 µM with protease, mean of the two replicates
[10] = sheet LOPAC_screen_w_protease, primary screen of LOPAC1280 at 5 µM with protease, replicate 1
[11] = sheet LOPAC_screen_w_protease, primary screen of LOPAC1280 at 5 µM with protease, replicate 2

With `Oc1ccc2c3c1O[C@H]1c4[nH]c5c(c4C[C@@]4(O)[C@@H](C2)N(CC2CC2)CC[C@]314)C[C@@]1(O)[C@H]2Cc3ccc(O)c4c3[C@@]1(CCN2CC1CC1)[C@H]5O4` [nor-Binaltorphimine] the “Ratio (A/B)” value (SARS-CoV-2 3CLpro [1]; [3]) was 2.0, the EC50 (SARS-CoV-2 3CLpro [1]; [4]) was 5200 ± 1160 nM and the EC50 (SARS-CoV-2 3CLpro [1]; [5]) was 2600 ± 1490 nM.
For `O=C(O)/C=C/c1ccc(O)c(O)c1` [Caffeic Acid], the EC50 (SARS-CoV-2 3CLpro [1]; A) EC50 with Triton X-100) was > 20000 nM and the EC50 (SARS-CoV-2 3CLpro [1]; B) EC50 without Triton X-100) was 5390 ± 1230 nM.
For `N=C(N)NCCSSCCNC(=N)N` [GED], the “Ratio (A/B)” value (SARS-CoV-2 3CLpro [1]; [3]) was 1.6, the EC50 (SARS-CoV-2 3CLpro [1]; [4]) was 5830 ± 664 nM and the EC50 (SARS-CoV-2 3CLpro [1]; [5]) was 3640 ± 2430 nM.
For `N.S=C(S)N1CCCC1` [APDC], the “Ratio (A/B)” value (SARS-CoV-2 3CLpro [1]) was 0.8, the EC50 (SARS-CoV-2 3CLpro [1]; [4]) was 1230 ± 64 nM and the EC50 (SARS-CoV-2 3CLpro [1]; [5]) was 1520 ± 697 nM.
`C=CCN1CCc2c(cc(O)c(O)c2Br)C(c2ccccc2)C1` (stereo not drawn) [R(+)-6-Bromo-APB] was tested, and the EC50 (SARS-CoV-2 3CLpro [1]; [4]) was > 20000 nM and the EC50 (SARS-CoV-2 3CLpro [1]; [5]) was > 20000 nM.
In the case of `CN1CCc2cc(O)cc3c2[C@H]1Cc1ccc(O)c(O)c1-3` [R(−)-2-Hydroxyapomorphine], the “Ratio (A/B)” value (SARS-CoV-2 3CLpro [1]; [3]) is reported as 1.1, the EC50 (SARS-CoV-2 3CLpro [1]; [4]) is reported as 450 ± 78 nM and the EC50 (SARS-CoV-2 3CLpro [1]; [5]) is reported as 420 ± 101 nM.
In the case of `C=CCN1CCc2cc(O)c(O)cc2C(c2ccccc2)C1` (racemic) [N-allyl-(±)-SKF 38393], the EC50 (SARS-CoV-2 3CLpro [1]; [4]) is reported as 3340 ± 805 nM and the EC50 (SARS-CoV-2 3CLpro [1]; [5]) is reported as 1650 ± 462 nM.
`CC(C)N(CCC(=O)c1ccc2ccccc2c1)Cc1ccccc1` [ZM 39923] was tested, and the “Ratio (A/B)” value (SARS-CoV-2 3CLpro [1]) was 1.0, the EC50 (SARS-CoV-2 3CLpro [1]; [4]) was 302 ± 38 nM and the EC50 (SARS-CoV-2 3CLpro [1]; [5]) was 289 ± 55 nM.
For `Oc1cc2c(cc1O)[C@H]1c3ccccc3CN[C@@H]1CC2` (racemic) [Dihydrexidine], the “Ratio (A/B)” value (SARS-CoV-2 3CLpro [1]) was 1.1, the EC50 (SARS-CoV-2 3CLpro [1]; [4]) was 705 ± 153 nM and the EC50 (SARS-CoV-2 3CLpro [1]; [5]) was 622 ± 72 nM.
Work on `Br.Br.N=C(N)SCCc1ccc(CCSC(=N)N)cc1` [1,4-PBIT dihydrobromide] yielded a mean (SARS-CoV-2 3CLpro [2]; [6]) of 0.7618, a Replicate_1 (SARS-CoV-2 3CLpro [2]; [7]) of 0.8182 and a Replicate_2 (SARS-CoV-2 3CLpro [2]; [8]) of 0.7055.
`Nc1ccc(CCNc2ncnc3c2ncn3[C@@H]2O[C@H](CO)[C@@H](O)[C@H]2O)cc1` [N6-2-(4-Aminophenyl)ethyladenosine] was tested, and the mean (SARS-CoV-2 3CLpro [2]; [9]) was 3.204, the Replicate_1 (SARS-CoV-2 3CLpro [2]; [10]) was 3.6817 and the Replicate_2 (SARS-CoV-2 3CLpro [2]; [11]) was 2.726.
In the case of `Cl.c1ccc(CN2CCC3(CCCc4ccccc43)CC2)cc1` [L-687,384 hydrochloride], the mean (SARS-CoV-2 3CLpro [2]; [6]) is reported as 0.6815, the Replicate_1 (SARS-CoV-2 3CLpro [2]; [7]) is reported as 0.6204 and the Replicate_2 (SARS-CoV-2 3CLpro [2]; [8]) is reported as 0.7425.
In the case of `NC(N)=Nc1ccc2[nH]c3c(c2c1)C[C@@]1(O)[C@H]2Cc4ccc(O)c5c4[C@@]1(CCN2CC1CC1)[C@H]3O5.O=C(O)C(F)(F)F.O=C(O)C(F)(F)F`, the mean (SARS-CoV-2 3CLpro [2]; sheet LOPAC_screen_w_protease, LOPAC1280 primary screen with protease, 5 µM compound, mean of the two replicates) is reported as 5.687, the Replicate_1 (SARS-CoV-2 3CLpro [2]; sheet LOPAC_screen_w_protease, LOPAC1280 primary screen with protease, 5 µM compound, replicate 1) is reported as 7.859 and the Replicate_2 (SARS-CoV-2 3CLpro [2]; sheet LOPAC_screen_w_protease, LOPAC1280 primary screen with protease, 5 µM compound, replicate 2) is reported as 3.515.
With `CCCCCCCCCCCCCCCC(=O)NCC(COP(=O)([O-])OCC[N+](C)(C)C)OCC` (racemic) the mean (SARS-CoV-2 3CLpro [2]; [9]) was 3.428, the Replicate_1 (SARS-CoV-2 3CLpro [2]; [10]) was 7.48 and the Replicate_2 (SARS-CoV-2 3CLpro [2]; [11]) was -0.6245.
With `CC(C)C[C@H](NC(=O)[C@H](O)[C@H](N)Cc1ccccc1)C(=O)O` [Epibestatin hydrochloride] the inhibition at 5 µM (SARS-CoV-2 3CLpro [2]; LOPAC1280 primary screen with protease, 5 µM compound, replicate 1, read-out: Replicate_1 (LOPAC_screen_w_protease)) was 1.71%, the inhibition at 5 µM (SARS-CoV-2 3CLpro [2]; LOPAC1280 primary screen with protease, 5 µM compound, replicate 2, read-out: Replicate_2 (LOPAC_screen_w_protease)) was 2.3% and the “mean (LOPAC_screen_w_protease)” value (SARS-CoV-2 3CLpro [2]; LOPAC1280 primary screen with protease, 5 µM compound, mean of the two replicates) was 2.008.
`CC(C)(C)NCC(O)c1ccc(O)c(CO)c1` (stereo not drawn) [Salbutamol] showed an inhibition at 5 µM (SARS-CoV-2 3CLpro [2]; sheet LOPAC_screen_w_protease, LOPAC1280 at 5 µM, mean of two replicates, read-out: mean) of 1.09%, an inhibition at 5 µM (SARS-CoV-2 3CLpro [2]; sheet LOPAC_screen_w_protease, LOPAC1280 at 5 µM, replicate 1, read-out: Replicate_1) of 1.09% and an inhibition at 5 µM (SARS-CoV-2 3CLpro [2]; sheet LOPAC_screen_w_protease, LOPAC1280 at 5 µM, replicate 2, read-out: Replicate_2) of 1.1%.
For `CCCN(CCC)C(=O)Cc1c(-c2ccc(Cl)cc2)nc2c(Cl)cc(Cl)cn12` [CB34], the Replicate_1 (SARS-CoV-2 3CLpro [2]) was 2.062, the Replicate_2 (SARS-CoV-2 3CLpro [2]) was 2.367 and the mean (SARS-CoV-2 3CLpro [2]) was 2.2145.
With `Br.CN=c1nc(-c2ccccc2)n(-c2ccccc2)s1` [SCH-202676 hydrobromide] the “mean (LOPAC screen with protease)” value (SARS-CoV-2 3CLpro [2]; sheet LOPAC_screen_w_protease, primary screen at 5 µM, mean of two replicates) was 100.647, the “Replicate_1 (LOPAC screen with protease)” value (SARS-CoV-2 3CLpro [2]; sheet LOPAC_screen_w_protease, primary screen at 5 µM, replicate 1) was 100.647 and the “Replicate_2 (LOPAC screen with protease)” value (SARS-CoV-2 3CLpro [2]; sheet LOPAC_screen_w_protease, primary screen at 5 µM, replicate 2) was 100.647.
